Here are results for 10 compounds from ChEMBL document CHEMBL4011606, “Synthesis and antiplasmodial activity of novel indoleamide derivatives bearing sulfonamide and triazole pharmacophores” (Eur J Med Chem, 2017).

The nature of series [1]: Selectivity index, ratio of CC50 for African green monkey Vero cells to IC50 for chloroquine-resistant Plasmodium falciparum K1. Format: toxicity. To be noted: read-out: Ratio CC50/IC50.
Series [2] in a line: Selectivity index, ratio of CC50 for African green monkey Vero cells to IC50 for chloroquine-sensitive Plasmodium falciparum 3D7. Format: toxicity. To be noted: read-out: Ratio CC50/IC50.
Series [3] in a line: Cytotoxicity against African green monkey Vero cells measured after 3 days by resazurin dye based fluorescence assay. The class given is cell-based. To be noted: chlorocebus sabaeus.
Series [4] is described as follows: Resistance index, ratio of IC50 for chloroquine-resistant Plasmodium falciparum K1 to IC50 for chloroquine-sensitive Plasmodium falciparum 3D7. Format: functional.
Series [5] has as its system Plasmodium falciparum. Description: Antiplasmodial activity against chloroquine-sensitive Plasmodium falciparum 3D7 infected in human erythrocytes measured after 72 hrs by SYBR green 1 dye based fluorescence assay. The class given is functional, cell-based. To be noted: 3D7, 72 h.
Series [6] concerns Plasmodium falciparum. Description: Antiplasmodial activity against chloroquine-resistant Plasmodium falciparum K1 infected in human erythrocytes measured after 72 hrs by SYBR green 1 dye based fluorescence assay. To be noted: K1, 72 h. The class given is functional, cell-based.

Structures are written as SMILES.

In the case of `O=C(CCCc1cn(S(=O)(=O)c2ccc(F)cc2)c2ccccc12)NC12CC3CC(CC(C3)C1)C2`, the figures for the selectivity ratio in series [1] and in series [2] were > 67 and > 85, respectively. In series [3], the CC50 at 72 h was > 250 µM. In addition, in series [4], the Ratio IC50 turned out to be 1.26. In addition, the half-maximal inhibitory concentration (IC50) in the series with Plasmodium falciparum [5] turned out to be 2.94 µM; with Plasmodium falciparum [6] it was 3.73 µM.

As for `CC(C)(C)c1ccc(S(=O)(=O)n2cc(CCCC(=O)NC3CCCCCC3)c3ccccc32)cc1`, the results for the selectivity ratio in series [1] and in series [2] were > 156 and > 125, respectively. Also, the CC50 at 72 h in series [3] was > 250 µM. The Ratio IC50 in series [4] is 0.8. In addition, the IC50 is 2 µM in the series with Plasmodium falciparum [5] and 1.6 µM in the series on Plasmodium falciparum [6].

As for `O=C(CCCc1cn(CCN2CCOCC2)c2ccccc12)NC1CCCCCC1`, the selectivity ratio in series [1] was > 35; in series [2] it was > 60. In addition, the CC50 at 72 h in series [3] was > 250 µM. In series [4], the Ratio IC50 was found to be 1.77. Also, the values for the concentration for half-maximal inhibition (IC50) in the series on Plasmodium falciparum [5] and in the series with Plasmodium falciparum [6] were 4.15 µM and 7.04 µM, respectively.

In the case of `CC(C)(C)c1ccc(S(=O)(=O)n2cc(CCCC(=O)NC34CC5CC(CC(C5)C3)C4)c3ccccc32)cc1`, the selectivity ratio was > 147 in series [1] and > 133 in series [2]. Further, the 50% cytotoxic concentration (CC50) at 72 h in series [3] was > 250 µM. Further, the Ratio IC50 in series [4] was found to be 0.9. For the same compound, the values for the concentration for half-maximal inhibition (IC50) with Plasmodium falciparum [5] and with Plasmodium falciparum [6] were 1.87 µM and 1.69 µM, respectively.

As for `O=C(CCCc1cn(Cc2ccc(Br)cc2)c2ccccc12)NC12CC3CC(CC(C3)C1)C2`, the results for the selectivity ratio in series [1] and in series [2] were > 74 and > 79, respectively. Moreover, in series [3], the 50% cytotoxic concentration (CC50) at 72 h was > 250 µM. For the same compound, the Ratio IC50 in series [4] was 1.06. In addition, the IC50 in the series on Plasmodium falciparum [5] came to 3.15 µM; in the series with Plasmodium falciparum [6], 3.35 µM.

Regarding `Cc1ccc(NC(=O)Cn2cc(Cn3cc(CCCC(=O)NC45CC6CC(CC(C6)C4)C5)c4ccccc43)nn2)cc1C`, the selectivity ratio in series [1] is > 100; in series [2], > 25. Also, the half-maximal cytotoxic concentration (CC50) at 72 h in series [3] is > 250 µM. In addition, in series [4], the Ratio IC50 is < 0.25. Also, the half-maximal inhibitory concentration (IC50) is > 10 µM in the series with Plasmodium falciparum [5] and 2.5 µM in the series with Plasmodium falciparum [6].

In the case of `CC(C)(C)c1ccc(S(=O)(=O)n2cc(CCCC(=O)NC3C4CC5CC(C4)CC3C5)c3ccccc32)cc1` (stereo not given), the figures for the selectivity ratio in series [1] and in series [2] were > 58 and > 74, respectively. The CC50 at 72 h in series [3] is > 250 µM. The Ratio IC50 in series [4] came to 1.27. The IC50 was 3.35 µM in the series on Plasmodium falciparum [5] and 4.26 µM with Plasmodium falciparum [6].

Regarding `O=C(Cc1c[nH]c2ccccc12)NCc1cn(CC(=O)Nc2ccc(I)cc2)nn1`, the selectivity ratio was > 111 in series [1] and > 65 in series [2]. Further, the CC50 at 72 h in series [3] is > 250 µM. Besides, the Ratio IC50 in series [4] stood at 0.58. In addition, the IC50 was found to be 3.83 µM in the series on Plasmodium falciparum [5] and 2.25 µM in the series with Plasmodium falciparum [6].

For the compound `O=C(CCCc1cn(S(=O)(=O)c2cccc3ccccc23)c2ccccc12)NC1CCCCCC1`, the results for the selectivity ratio in series [1] and in series [2] were > 67 and > 53, respectively. In series [3], the CC50 at 72 h is > 250 µM. Moreover, the Ratio IC50 in series [4] stood at 0.78. In addition, the concentration for half-maximal inhibition (IC50) in the series with Plasmodium falciparum [5] came to 4.67 µM; with Plasmodium falciparum [6], 3.68 µM.

As to `Cc1ccc(S(=O)(=O)n2cc(CCCC(=O)NC34CC5CC(CC(C5)C3)C4)c3ccccc32)cc1`, the selectivity ratio in series [1] is > 63; in series [2], > 62. Also, the cytotoxic concentration (CC50) at 72 h in series [3] was > 250 µM. Further, in series [4], the Ratio IC50 was determined as 0.98. Besides, the IC50 in the series with Plasmodium falciparum [5] stood at 3.99 µM; with Plasmodium falciparum [6] it was 3.95 µM.

As usually defined, the CC50 is the concentration giving 50% cytotoxicity. One may read the IC50 as the concentration that inhibits the measured activity by half.
